In patent US11419806B2, “Prebiotic oral care methods using a saccharide” (Colgate-Palmolive Company, priority 2013, dated 2022):

Tests used:
Format in all cases: cell-based
Actinomyces naeslundii = test: Twenty-four hour optical density growth in BHI; details: A naeslundii
Outline: (§1)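 Each strain, grown under anaerobic conditions at 37° C, was tested in rich BHI medium at 1×10^7 CFU/ml against four saccharides at final concentrations of 5, 10, 20 and 25 μmol/ml, alongside a saccharide-free control. Reported figures average three independent days of quadruplicate wells.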

Actinomyces viscosus = test: Twenty-four hour optical density growth in BHI; details: A viscosus
Outline: as §1

[1] = test system: Aggregatibacter actinomycetemcomitans; test: Twenty-four hour optical density growth in BHI; details: A actinomycetemcomitans
Capnocytophaga sputigena = test: Twenty-four hour optical density growth in BHI; details: C sputigena
Outline: as §1

Fusobacterium nucleatum = test: Twenty-four hour optical density growth in BHI; details: F nucleatum
Outline: as §1

Porphyromonas gingivalis = test: Twenty-four hour optical density growth in BHI; details: P gingivalis
Outline: as §1

Prevotella intermedia = test: Twenty-four hour optical density growth in BHI; details: P intermedia
Outline: as §1

S. sanguinis = test: Twenty-four hour optical density growth in BHI
Streptococcus gordonii = test: Twenty-four hour optical density growth in BHI; details: S gordonii
Streptococcus mitis = test: Twenty-four hour optical density growth in BHI; details: S mitis
Streptococcus mutans = test: Twenty-four hour optical density growth in BHI; details: S mutans
Streptococcus salivarius = test: Twenty-four hour optical density growth in BHI; details: S salivarius
Streptococcus sobrinus = test: Twenty-four hour optical density growth in BHI; details: S sobrinus
Tannerella forsythia = test: Twenty-four hour optical density growth in BHI; details: T forsythia
Outline: as §1

Veillonella parvula = test: Twenty-four hour optical density growth in BHI; details: V parvula
Outline: as §1

[2] = test system: beneficial oral bacteria and pathogenic oral bacteria; test: Twenty-four hour optical density, overall prebiotic assessment; details: concentrations of 5, 10, 20 and 25 μmol/ml
Excerpt: Substrates that were able to increase the growth (or maximal growth density or extent of growth) of at least one of the above beneficial bacteria while not or only minimally increasing the growth (or maximal growth density) of the pathogenic bacteria are considered to be prebiotic compounds.
The extent of growth of the tested bacteria in response to selected saccharides (myo-inositol, D-lactitol, D-turanose and N-acetyl-D-mannosamine) was investigated by setting up growth curves in a nutritionally rich medium (brain heart infusion broth (BHI), Oxoid), over 24 hours. Late exponential growth phase liquid cultures were prepared by transferring the respective bacterium from blood agar plates to BHI and overnight incubation at 37° C. in an anaerobic atmosphere for A. viscosus, V. parvula, F. nucleatum, P. gingivalis, P. intermedia, T. forsythia, A. naeslundii, and C. sputigena, and in a 5% CO2 environment for S. salivarius, S. sanguinis, S. mitis, A. actinomycetemcomitans, S. mutans, S. sobrinus and S. gordonii. […]
For each combination of bacterium/saccharide, and for each of their respective controls (i.e. the particular bacterium in the nutritionally rich medium with no saccharide), the optical density was measured at 630 nm (OD630) at 0 h and 24 h (Thermo Scientific Multiskan Ascent). Additionally, the OD630 for combinations of bacterium/saccharides grown in a 5% CO2 environment were also measured every hour between 0 h and 9 h.
The experiment was carried out on three different days (thus providing 3 biological replicas) and on each day the experiment was carried out in quadruple (thus providing 4 technical replicas) for each combination of bacterium with saccharide and for each control. For each day and for each combination, the average (mean) of the values obtained (as detailed above) for the four technical replicas was calculated to provide a single value for each combination on each day. […]

Q: With CC(=O)N[C@H](C=O)[C@@H](O)[C@H](O)[C@H](O)CO [N-acetyl-D-mannosamine, 2-acetamido-2-deoxy-D-mannose] as the compound, how does the “extent of growth: maximal OD630 over 24 hr divided by maximal OD of control (control = 1)” value (Actinomyces naeslundii; 5 μmol/ml) read?
A: 0.9820

Q: And the “extent of growth: maximal OD630 over 24 hr divided by maximal OD of control (control = 1)” value (Actinomyces naeslundii; 10 μmol/ml)?
A: 0.8708

Q: What about the “extent of growth: maximal OD630 over 24 hr divided by maximal OD of control (control = 1)” value (Actinomyces naeslundii; 20 μmol/ml) of the same compound?
A: 0.9716

Q: What about the “extent of growth: maximal OD630 over 24 hr divided by maximal OD of control (control = 1)” value (Actinomyces naeslundii; 25 μmol/ml) of the same compound?
A: 0.8535

Q: What about the “extent of growth: maximal OD630 over 24 hr divided by maximal OD of control (control = 1)” value (Actinomyces viscosus; 5 μmol/ml) of the same compound?
A: 0.8017

Q: And the “extent of growth: maximal OD630 over 24 hr divided by maximal OD of control (control = 1)” value (Actinomyces viscosus; 10 μmol/ml)?
A: 0.8753

Q: And the “extent of growth: maximal OD630 over 24 hr divided by maximal OD of control (control = 1)” value (Actinomyces viscosus; 20 μmol/ml)?
A: 0.9225

Q: What about the “extent of growth: maximal OD630 over 24 hr divided by maximal OD of control (control = 1)” value (Actinomyces viscosus; 25 μmol/ml) of the same compound?
A: 0.8824

Q: What about the “extent of growth: maximal OD630 over 24 hr divided by maximal OD of control (control = 1)” value ([1]; 5 μmol/ml) of the same compound?
A: 1.0637

Q: What about the “extent of growth: maximal OD630 over 24 hr divided by maximal OD of control (control = 1)” value ([1]; 10 μmol/ml) of the same compound?
A: 0.9102

Q: What about the “extent of growth: maximal OD630 over 24 hr divided by maximal OD of control (control = 1)” value ([1]; 20 μmol/ml) of the same compound?
A: 0.9405

Q: What about the “extent of growth: maximal OD630 over 24 hr divided by maximal OD of control (control = 1)” value ([1]; 25 μmol/ml) of the same compound?
A: 0.8614

Q: What about the “extent of growth: maximal OD630 over 24 hr divided by maximal OD of control (control = 1)” value (Capnocytophaga sputigena; 5 μmol/ml) of the same compound?
A: 0.9620

Q: And the “extent of growth: maximal OD630 over 24 hr divided by maximal OD of control (control = 1)” value (Capnocytophaga sputigena; 10 μmol/ml)?
A: 0.9635

Q: What about the “extent of growth: maximal OD630 over 24 hr divided by maximal OD of control (control = 1)” value (Capnocytophaga sputigena; 20 μmol/ml) of the same compound?
A: 0.9576

Q: And the “extent of growth: maximal OD630 over 24 hr divided by maximal OD of control (control = 1)” value (Capnocytophaga sputigena; 25 μmol/ml)?
A: 0.9554

Q: What about the “extent of growth: maximal OD630 over 24 hr divided by maximal OD of control (control = 1)” value (Fusobacterium nucleatum; 5 μmol/ml) of the same compound?
A: 0.9065

Q: What about the “extent of growth: maximal OD630 over 24 hr divided by maximal OD of control (control = 1)” value (Fusobacterium nucleatum; 10 μmol/ml) of the same compound?
A: 0.8477

Q: And the “extent of growth: maximal OD630 over 24 hr divided by maximal OD of control (control = 1)” value (Fusobacterium nucleatum; 20 μmol/ml)?
A: 0.9564

Q: What about the “extent of growth: maximal OD630 over 24 hr divided by maximal OD of control (control = 1)” value (Fusobacterium nucleatum; 25 μmol/ml) of the same compound?
A: 0.9193

Q: What about the “extent of growth: maximal OD630 over 24 hr divided by maximal OD of control (control = 1)” value (Porphyromonas gingivalis; 5 μmol/ml) of the same compound?
A: 0.8020

Q: And the “extent of growth: maximal OD630 over 24 hr divided by maximal OD of control (control = 1)” value (Porphyromonas gingivalis; 10 μmol/ml)?
A: 0.8427

Q: And the “extent of growth: maximal OD630 over 24 hr divided by maximal OD of control (control = 1)” value (Porphyromonas gingivalis; 20 μmol/ml)?
A: 0.9137

Q: What about the “extent of growth: maximal OD630 over 24 hr divided by maximal OD of control (control = 1)” value (Porphyromonas gingivalis; 25 μmol/ml) of the same compound?
A: 0.9419

Q: What about the “extent of growth: maximal OD630 over 24 hr divided by maximal OD of control (control = 1)” value (Prevotella intermedia; 5 μmol/ml) of the same compound?
A: 0.9530

Q: What about the “extent of growth: maximal OD630 over 24 hr divided by maximal OD of control (control = 1)” value (Prevotella intermedia; 10 μmol/ml) of the same compound?
A: 1.0261

Q: What about the “extent of growth: maximal OD630 over 24 hr divided by maximal OD of control (control = 1)” value (Prevotella intermedia; 20 μmol/ml) of the same compound?
A: 1.0229

Q: What about the “extent of growth: maximal OD630 over 24 hr divided by maximal OD of control (control = 1)” value (Prevotella intermedia; 25 μmol/ml) of the same compound?
A: 1.0494

Q: And the “extent of growth: maximal OD630 over 24 hr divided by maximal OD of control (control = 1)” value (S. sanguinis; 5 μmol/ml)?
A: 0.8350

Q: And the “extent of growth: maximal OD630 over 24 hr divided by maximal OD of control (control = 1)” value (S. sanguinis; 10 μmol/ml)?
A: 0.8644

Q: What about the “extent of growth: maximal OD630 over 24 hr divided by maximal OD of control (control = 1)” value (S. sanguinis; 20 μmol/ml) of the same compound?
A: 0.8219

Q: And the “extent of growth: maximal OD630 over 24 hr divided by maximal OD of control (control = 1)” value (S. sanguinis; 25 μmol/ml)?
A: 0.8122

Q: And the “extent of growth: maximal OD630 over 24 hr divided by maximal OD of control (control = 1)” value (Streptococcus gordonii; 5 μmol/ml)?
A: 0.9930

Q: What about the “extent of growth: maximal OD630 over 24 hr divided by maximal OD of control (control = 1)” value (Streptococcus gordonii; 10 μmol/ml) of the same compound?
A: 1.0254

Q: And the “extent of growth: maximal OD630 over 24 hr divided by maximal OD of control (control = 1)” value (Streptococcus gordonii; 20 μmol/ml)?
A: 0.9827

Q: And the “extent of growth: maximal OD630 over 24 hr divided by maximal OD of control (control = 1)” value (Streptococcus gordonii; 25 μmol/ml)?
A: 1.0015

Q: What about the “extent of growth: maximal OD630 over 24 hr divided by maximal OD of control (control = 1)” value (Streptococcus mitis; 5 μmol/ml) of the same compound?
A: 1.3409

Q: And the “extent of growth: maximal OD630 over 24 hr divided by maximal OD of control (control = 1)” value (Streptococcus mitis; 10 μmol/ml)?
A: 1.3866

Q: What about the “extent of growth: maximal OD630 over 24 hr divided by maximal OD of control (control = 1)” value (Streptococcus mitis; 20 μmol/ml) of the same compound?
A: 1.7155

Q: What about the “extent of growth: maximal OD630 over 24 hr divided by maximal OD of control (control = 1)” value (Streptococcus mitis; 25 μmol/ml) of the same compound?
A: 1.7409

Q: What about the “extent of growth: maximal OD630 over 24 hr divided by maximal OD of control (control = 1)” value (Streptococcus mutans; 5 μmol/ml) of the same compound?
A: 0.8669

Q: And the “extent of growth: maximal OD630 over 24 hr divided by maximal OD of control (control = 1)” value (Streptococcus mutans; 10 μmol/ml)?
A: 0.8670

Q: What about the “extent of growth: maximal OD630 over 24 hr divided by maximal OD of control (control = 1)” value (Streptococcus mutans; 20 μmol/ml) of the same compound?
A: 0.8300

Q: What about the “extent of growth: maximal OD630 over 24 hr divided by maximal OD of control (control = 1)” value (Streptococcus mutans; 25 μmol/ml) of the same compound?
A: 0.8283

Q: What about the “extent of growth: maximal OD630 over 24 hr divided by maximal OD of control (control = 1)” value (Streptococcus salivarius; 5 μmol/ml) of the same compound?
A: 0.8639

Q: And the “extent of growth: maximal OD630 over 24 hr divided by maximal OD of control (control = 1)” value (Streptococcus salivarius; 10 μmol/ml)?
A: 0.8849

Q: And the “extent of growth: maximal OD630 over 24 hr divided by maximal OD of control (control = 1)” value (Streptococcus salivarius; 20 μmol/ml)?
A: 0.8460

Q: And the “extent of growth: maximal OD630 over 24 hr divided by maximal OD of control (control = 1)” value (Streptococcus salivarius; 25 μmol/ml)?
A: 0.9251

Q: And the “extent of growth: maximal OD630 over 24 hr divided by maximal OD of control (control = 1)” value (Streptococcus sobrinus; 5 μmol/ml)?
A: 0.9307

Q: What about the “extent of growth: maximal OD630 over 24 hr divided by maximal OD of control (control = 1)” value (Streptococcus sobrinus; 10 μmol/ml) of the same compound?
A: 0.7794

Q: And the “extent of growth: maximal OD630 over 24 hr divided by maximal OD of control (control = 1)” value (Streptococcus sobrinus; 20 μmol/ml)?
A: 0.7737

Q: And the “extent of growth: maximal OD630 over 24 hr divided by maximal OD of control (control = 1)” value (Streptococcus sobrinus; 25 μmol/ml)?
A: 0.7857

Q: And the “extent of growth: maximal OD630 over 24 hr divided by maximal OD of control (control = 1)” value (Tannerella forsythia; 5 μmol/ml)?
A: 0.9742

Q: And the “extent of growth: maximal OD630 over 24 hr divided by maximal OD of control (control = 1)” value (Tannerella forsythia; 10 μmol/ml)?
A: 0.9715

Q: And the “extent of growth: maximal OD630 over 24 hr divided by maximal OD of control (control = 1)” value (Tannerella forsythia; 20 μmol/ml)?
A: 0.9706

Q: And the “extent of growth: maximal OD630 over 24 hr divided by maximal OD of control (control = 1)” value (Tannerella forsythia; 25 μmol/ml)?
A: 0.9451

Q: And the “extent of growth: maximal OD630 over 24 hr divided by maximal OD of control (control = 1)” value (Veillonella parvula; 5 μmol/ml)?
A: 1.0227

Q: What about the “extent of growth: maximal OD630 over 24 hr divided by maximal OD of control (control = 1)” value (Veillonella parvula; 10 μmol/ml) of the same compound?
A: 1.0174

Q: What about the “extent of growth: maximal OD630 over 24 hr divided by maximal OD of control (control = 1)” value (Veillonella parvula; 20 μmol/ml) of the same compound?
A: 1.0466

Q: What about the “extent of growth: maximal OD630 over 24 hr divided by maximal OD of control (control = 1)” value (Veillonella parvula; 25 μmol/ml) of the same compound?
A: 1.0213

Q: What about the “prebiotic effects (extent of growth, threshold value 1.25)” value [2] of the same compound?
A: exhibited prebiotic effects
